Reference: patent US8338151B2, “Method for creating intracellular artificial nanostructures in situ” (The Hong Kong University of Science and Technology, priority 2005, dated 2012)

Experiment: Minimum gelation concentration / hydrogelation ability
Type: physicochemical
Excerpt: In this embodiment, precursors bearing the general formula C10H7CH2C(O)—ZZ (where Z is the residue of an amino acid) was used.
For this precursor, it is possible to use the enzyme kinase/phosphatase pair as an enzyme switch because (i) FF is prone to self-assembly (ii) Nap-FF gels water effectively (at 0.8 wt %), and (iii) the residue of Glu-Tyr (EY) accepts phosphorylation in the presence of a tyrosine kinase and the phosphorylation process can be reversed by phosphatase.
One of the motivations to use naphthalene (Nap) rather than N-(fluorenyl-methoxycarbonyl) (FMOC) is that Nap should be more biocompatible, as evidenced by several clinical drugs consisting of a Nap motif (i. e., propranolol, naphazoline, nafronyl). The glycine (G) was used to connect Nap-FF with EY because glycine is the simplest amino acid. Unlike other pentapeptides, FFGEY is not a known epitope of any protein, but it carries the basic structural requirement to serve as the substrate of the tyrosine kinase. After obtaining precursor IIIa through solid-phase synthesis, the hydrogelation ability of IIIa was tested. Via a slight adjustment of pH (from 7.8 to 7.5), IIIa forms a transparent hydrogel in water at 0.6 wt %). The successful hydrogelation of IIIa implies that Nap-FF also may act as a useful motif to conjugate with other amino acid residues to construct hydrogelators. […]

**Q.** Which results are given for O=C(Cc1ccc2ccccc2c1)N[C@@H](Cc1ccccc1)C(=O)N[C@@H](Cc1ccccc1)C(=O)O [C10H7CH2C(O)-L-Phe-L-Phe]?
**A.** minimum gelation concentration (mgc): ca. 0.4%; concentration at which a hydrogel forms in water (water): 0.8 wt %
